Laboratory results reported in patent US20050287594A1 (priority 2000, published 2005).
Where two headings read alike, the source gives them in different places.

Experiments:
[1] = system: rat testis proteome; type: binding
[2] = target: T1, cALDH-I (Rattus norvegicus, UniProt P51647); type: biochemical
T1 construct: His tag (pTrcHis vector) (N); made in house; host or cells: E. coli BL-21
T1 sequence (P51647 1-501): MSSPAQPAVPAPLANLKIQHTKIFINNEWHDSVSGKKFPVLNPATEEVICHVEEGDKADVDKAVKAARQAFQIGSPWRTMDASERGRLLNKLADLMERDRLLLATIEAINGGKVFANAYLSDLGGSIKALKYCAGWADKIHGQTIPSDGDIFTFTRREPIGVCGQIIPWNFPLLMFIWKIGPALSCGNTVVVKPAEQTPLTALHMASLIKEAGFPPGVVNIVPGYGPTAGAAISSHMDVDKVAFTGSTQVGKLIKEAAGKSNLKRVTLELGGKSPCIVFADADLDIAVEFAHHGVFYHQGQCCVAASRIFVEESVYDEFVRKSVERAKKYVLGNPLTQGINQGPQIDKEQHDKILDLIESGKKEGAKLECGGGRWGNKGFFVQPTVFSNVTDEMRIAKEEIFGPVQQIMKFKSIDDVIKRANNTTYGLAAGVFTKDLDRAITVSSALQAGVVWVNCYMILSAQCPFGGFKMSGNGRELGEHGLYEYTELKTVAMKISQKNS

[3] = target: T1, cALDH-I; type: binding
[4] = pH 8
[5] = target: T1, cALDH-I; conditions: read-out: Michealis constant Km, reported literature value; cited from earlier work

O=C(CCCCCCCCCOS(=O)(=O)c1cccs1)NCCCCCNC(=O)CCCCC1SCC2NC(=O)NC21 (stereo not drawn) [sulfonate 11]
specific (heat-sensitive) proteome reactivity [1]: reacted specifically with a 55 kDa protein, as well as two additional proteins poorly labeled by the other reagents

CCCCCCCCOS(=O)(=O)c1ccccn1 [Sulfonate 15, 1-(2-Pyridylsulfonyl)oxo-octane]
average Kobs/[I] [2]: (9.7+1.8)×10^3 M^−min^−
cALDH-I inactivation (in words) [2]: completely inactivated
effect of NAD^+ on inactivation of cALDH-I by 15 [2]: completely protected the enzyme from inactivation
blocking of the labeling of cALDH-I by 1 [3]: effectively blocked the labeling of cALDH-I by 1
stability in reaction buffer [4]: stable to the assay conditions employed

Cc1ccc(S(=O)(=O)OCCCCCCCCCC(=O)NCCCCCNC(=O)CCCCC2SCC3NC(=O)NC32)cc1 (stereo not drawn) [sulfonate 3, 10-((p-Toluenesulfonyl)oxo)-N-biotinamidopentyldecanamide]
specific (heat-sensitive) proteome reactivity [1]: specifically labeled one 55 kDa protein

COc1ccc(S(=O)(=O)OCCCCCCCCCC(=O)NCCCCCNC(=O)CCCCC2SCC3NC(=O)NC32)cc1 (stereo not drawn) [sulfonate 4, 10-((4-Methoxybenzenesulfonyl)oxo)-N-biotinamidopentyldecanamide]
nonspecific (heat-insensitive) reactivity with the preheated proteome [1]: showed significant additional reactivity with the preheated proteome
specific (heat-sensitive) proteome reactivity [1]: labeled four members of the proteome in a heat-sensitive manner

CCOS(=O)(=O)c1ccccn1 [sulfonate 16, 1-(2-Pyridylsulfonyl)oxo-ethane]
% Activity Remaining [2]: 42%
Kobs/[I] [2]: 0.00417 M⁻¹ s⁻¹
cALDH-I inactivation (in words) [2]: weak
second order inhibition rate constant, times lower than that determined for 15 [2]: 40000 times
blocking of the labeling of cALDH-I by 1 [3]: did not block the labeling of cALDH-I by 1

CCCCS(=O)(=O)OCCCCCCCCCC(=O)NCCCCCNC(=O)CCCCC1SCC2NC(=O)NC21 (stereo not drawn) [sulfonate 6, 10-((Butylsulfonyl)oxo)-N-biontinamidopentyldecanamide]
specific (heat-sensitive) proteome reactivity [1]: specifically labeled one 55 kDa protein

O=C(CCCCCCCCCOS(=O)(=O)c1ccc2ccccc2c1)NCCCCCNC(=O)CCCCC1SCC2NC(=O)NC21 (stereo not drawn) [sulfonate 10, 10-((2-Naphthalenesulfonyl)oxo)-N-biotinamidopentyldecanamide]
specific (heat-sensitive) proteome reactivity [1]: specifically labeled one 55 kDa protein

CS(=O)(=O)OCCCCCCCCCC(=O)NCCCCCNC(=O)CCCCC1SCC2NC(=O)NC21 (stereo not drawn) [sulfonate 5, 10-((Methylsulfonyl)oxo)-N-biotinamidopentyldecanamide]
nonspecific (heat-insensitive) reactivity with the preheated proteome [1]: showed significant additional reactivity with the preheated proteome
specific (heat-sensitive) proteome reactivity [1]: labeled four members of the proteome in a heat-sensitive manner

O=C(CCCCCCCCCOS(=O)(=O)c1ccc([N+](=O)[O-])cc1)NCCCCCNC(=O)CCCCC1SCC2NC(=O)NC21 (stereo not drawn) [sulfonate 8, 10-((4-Nitrobenzenesulfonyl)oxo)-N-biotinamidopentyldecanamide]
specific (heat-sensitive) proteome reactivity [1]: reacted specifically with a 55 kDa protein, as well as two additional proteins poorly labeled by the other reagents

CCCCCCCCOS(C)(=O)=O [sulfonate 17, 1-(Methanesulfonyl)oxo-octane]
% Activity Remaining [2]: 100%
cALDH-I inactivation (in words) [2]: no inhibition
blocking of the labeling of cALDH-I by 1 [3]: did not block the labeling of cALDH-I by 1

CCC=O [propionaldehyde, reference compound]
Km ([2]; read-out: Michealis constant Km): 4.2 µM
Km [5]: 6.5 µM

O=C(CCCCCCCCCOS(=O)(=O)c1ccccn1)NCCCCCNC(=O)CCCC[C@@H]1SC[C@@H]2NC(=O)N[C@@H]21 [sulfonate 1, 10-((2-pyridylsulfonyl)oxo)-N-biotinamidopentyldecanamide]
specific (heat-sensitive) proteome reactivity [1]: labeled a 55 kDa protein and a 31 kDa protein

O=C(CCCCCCCCCOS(=O)(=O)c1ccccc1)NCCCCCNC(=O)CCCCC1SCC2NC(=O)NC21 (stereo not drawn) [sulfonate 2, 10-((Benzenesulfonyl)oxo)-N-biotinamidopentyldecanamide]
specific (heat-sensitive) proteome reactivity [1]: reacted with three of the four proteins labeled by 4 and 5

O=C(CCCCCCCCCOS(=O)(=O)c1cccc2cccnc12)NCCCCCNC(=O)CCCCC1SCC2NC(=O)NC21 (stereo not drawn) [sulfonate 9, 10-((8-Quinolinesulfonyl)oxo)-N-biotinamidopentyldecanamide]
specific (heat-sensitive) proteome reactivity [1]: reacted specifically with a 55 kDa protein, as well as two additional proteins poorly labeled by the other reagents
